Experimental data as given in US11344498B2, “Compositions and methods for on-demand high-efficiency triggerable anesthesia” (priority 2015, dated 2022).
Where two headings read alike, the source gives them in different places.

How the values were obtained:
[1] = test system: sciatic nerves and adjacent tissues; conditions: rat, in vivo
sciatic nerve = experiment: Motor nerve block, weight-bearing test (TTX, ultrasound, microbubbles); conditions: rat, in vivo
[2] = Protocol: Animals were anesthetized with isoflurane-oxygen and injected with 50 μL of 10 mg/mL sulforhodamine B PBS solution at the sciatic nerve co-injected with or without 50 μL of 50 μg/mL DMED. […] The supernatant was collected and methanol was added at a 1:1 vol ratio. […] The concentration of sulforhodamine B was analyzed by fluorescence (excitation/emission: 560/580 nm).
Liposomal pharmacokinetics studies were performed by co-injecting 200 μL of Lipo-PS-Srho with 200 μL of Lipo or Lipo-DMED at the sciatic nerve. At predetermined time points (30 min, 3 h, 7 h and 10 h), blood was harvested by tail-bleeding.

N=C1N[C@@H](O)[C@H]2[C@@H]3OC4(O)OC(C(O)[C@@]2(N1)[C@@H]4O)[C@]3(O)CO (stereo partly drawn) [TTX, Tetrodotoxin]
inflammation score [1]: 1
myotoxicity score [1]: 0
median duration of motor nerve block (sciatic nerve): 0 min

Cc1cccc([C@H](C)c2cnc[nH]2)c1C [DMED, (S)-4-[1-(2,3-Dimethylphenyl)ethyl]-3H-imidazole]
decrease of peak Srho plasma concentration ([2]; rat, in vivo): 27.5%
time to peak Srho plasma level ([2]; rat, in vivo): 60 min

CCN(CC)c1ccc2c(-c3ccc(S(=O)(=O)O)cc3S(=O)(=O)[O-])c3ccc(=[N+](CC)CC)cc-3oc2c1 [Srho, sulforhodamine B]
time to peak Srho plasma level ([2]; free Srho without DMED): 30 min
